Measured values taken from patent US11260084B2 (priority 2017, dated 2022).

Key:
[1] = test system: Eimeria acervulina, Eimeria maxima and Eimeria tenella; experiment: Example 8 broiler study under severe coccidiosis challenge conditions; type: in vivo, Ross 708 broiler chicks; settings: 28-day mortality; compared to the challenged control
From the text: EXAMPLE 8 of the present disclosure describes a study to evaluate the efficacy of a combination of xylanase (10 U/g feed), B. licheniformis strain PWD-1 (1×10^5 CFU/g feed), and B. amyloliquefaciens strain Ba-BPD1 (5×10^5 CFU/g feed) referred to as “Xyl+B+Y”, to minimize the severity of gut lesions and improve overall livability of broiler chickens fed standard corn-soy diets and reared under severe coccidiosis challenge conditions. In the study chicks were twice challenged with a live vaccine containing the live oocysts of highly-immunogenic, coccidiostat-sensitive strains of Eimeria acervulina, Eimeria maxima and Eimeria tenella by oral gavage and the Xyl+B+Y combination was compared to salinomycin sodium which is referred to as “Coccidiostat” in FIG. 13. […]
MATERIALS AND METHODS: Four hundred male Ross 708 broiler chicks were randomly assigned to 1 of 4 dietary treatments, with 7 replicate battery cages per treatment (except Treatment 1, the unchallenged positive control, which contained 4 replicate cages), and 16 birds per cage. […] The key parameters evaluated were upper-tract intestinal lesion scores, middle-tract intestinal lesion scores, mortality/livability, and feed conversion ratio (FCR).

[2] = test system: Clostridium perfringens, Eimeria acervulina, and Eimeria maxima, and Eimeria tenella; type: in vivo, Ross 708 broilers; settings: at 21-days and 42-days of age; versus control

Compound | reduction of mortality [1] | effect on mortality [2]
CC[C@@H](C(=O)[C@@H](C)[C@@H](O)[C@H](C)[C@@H]1O[C@@H]([C@@H](CC)C(=O)O)CC[C@@H]1C)[C@H]1O[C@]2(C=C[C@@H](O)[C@]3(CC[C@@](C)([C@H]4CC[C@](O)(CC)[C@H](C)O4)O3)O2)[C@H](C)C[C@@H]1C [Coccidiostat, salinomycin sodium] | 25% | 
bacitracin methylene disalicylate [AGP] |  | did not significantly improve
